Laboratory results taken from patent US20260250290A1 (BRISTOL-MYERS SQUIBB COMPANY, priority 2023, published 2026).
Counter-ions that a name gives are not always drawn.

Molecular target: T1, full length SGK1 (Homo sapiens, UniProt O00141)
T1 construct: 125 μM full length SGK1 (Life Technologies Part #PR7358A); purchased Life Technologies PR7358A
T1 sequence (O00141 1-431): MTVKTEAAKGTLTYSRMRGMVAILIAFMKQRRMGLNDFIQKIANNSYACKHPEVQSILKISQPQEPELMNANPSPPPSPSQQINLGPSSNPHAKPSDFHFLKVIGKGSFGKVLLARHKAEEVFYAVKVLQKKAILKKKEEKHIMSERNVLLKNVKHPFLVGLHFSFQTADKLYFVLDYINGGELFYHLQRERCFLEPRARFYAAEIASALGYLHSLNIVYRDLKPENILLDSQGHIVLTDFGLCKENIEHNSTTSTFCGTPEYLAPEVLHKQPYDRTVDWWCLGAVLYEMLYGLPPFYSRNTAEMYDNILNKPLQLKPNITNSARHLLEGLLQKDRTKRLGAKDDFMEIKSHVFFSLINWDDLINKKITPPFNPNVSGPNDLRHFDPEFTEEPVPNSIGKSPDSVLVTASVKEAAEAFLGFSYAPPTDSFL
Experiment: SGK1 inhibition Assay A (Caliper LabChip electrophoretic separation of fluorescent peptide substrate and phosphorylated product)
Type: biochemical
Settings: Assay A; 20 μM ATP, 40 min incubation; read-out: SGK1 IC50

| Molecule | IC50 [µM] |
| --- | --- |
| Nc1ncnn2c(-c3cncnc3)cc(N3CCC[C@@H](NC(=O)c4cc5ccccc5s4)C3)c12 [Example 646, (R)-N-(1-(4-amino-7-(pyrimidin-5-yl)pyrrolo[2,1-f][1,2,4]triazin-5-yl)piperidin-3-yl)benzo[b]thiophene-2-carboxamide] | 0.008 |
| CN(C)CCOc1cc(Cl)sc1C(=O)N[C@@H]1CCCN(c2cc(-c3ccnc(F)c3)n3ncnc(N)c23)C1 [Example 149, (R)-N-(1-(4-amino-7-(2-fluoropyridin-4-yl)pyrrolo[2,1-f][1,2,4]triazin-5-yl)piperidin-3-yl)-5-chloro-3-(2-(dimethylamino)ethoxy) thiophene-2-carboxamide, TFA] | 0.001 |
| COC(=O)CN1CC=C(c2cc(N3CCC[C@@H](NC(=O)c4ccc(Cl)s4)C3)c3c(N)ncnn23)C1 [Example 911, methyl (R)-2-(3-(4-amino-5-(3-(5-chlorothiophene-2-carboxamido)piperidin-1-yl)pyrrolo[2,1-f][1,2,4]triazin-7-yl)-2,5-dihydro-1H-pyrrol-1-yl)acetate] | 0.07 |
| CC(=O)NCCOc1cc(C(F)F)sc1C(=O)N[C@@H]1CCCN(c2cc(-c3ccc(=O)n(CC(F)F)c3)n3ncnc(N)c23)C1 [Example 432, (R)-3-(2-acetamidoethoxy)-N-(1-(4-amino-7-(1-(2,2-difluoro-ethyl)-6-oxo-1,6-dihydropyri-din-3-yl)pyrrolo[2,1-f] [1,2,4]triazin-5-yl)piperidin-3-yl)-5-(difluoromethyl)thio-phene-2-carboxamide] | 0.008 |
| CC(=O)N(C)CCOc1cc(Cl)sc1C(=O)N[C@@H]1CCCN(c2cc(C3=CCN(C(C)=O)C3)n3ncnc(N)c23)C1 [Example 332, (R)—N-(1-(7-(1-acetyl-2,5-dihydro-1H-pyrrol-3-yl)-4-aminopyrrolo[2,1-f][1,2,4]triazin-5-yl)piperidin-3-yl)-5-chloro-3-(2-(N-methylacetamido)ethoxy)thiophene-2-carboxamide] | 0.018 |
| CC(=O)N1CC=C(c2cc(N3CCC[C@@H](NC(=O)c4sc(Cl)cc4OC4CCNCC4F)C3)c3c(N)ncnn23)C1 (single isomer, unassigned) [Example 600D] | 0.019 |
| CC1CC(Oc2cc(Cl)sc2C(=O)NC2CCCN(c3cc(-c4cncnc4)n4ncnc(N)c34)C2)CCN1 (single isomer, unassigned) [Example 626] | 0.008 |
| CC(=O)N1CC=C(c2cc(N3CCC[C@@H](NC(=O)c4sc(Cl)cc4OC4CC(N(C)C)C4)C3)c3c(N)ncnn23)C1 (stereo partly drawn) [Example 598, (R)-N-(1-(7-(1-acetyl-2,5-dihydro-1H-pyrrol-3-yl)-4-aminopyrrolo[2,1-f][1,2,4]triazin-5-y1)piperidin-3-y1)-5-chloro-3-(3-(dimethylamino)cyclobutoxy)thiophenc-2-carboxamide] | 0.006 |
| (R)-2-(1-(7-(1-acetyl-2,5- dihydro-1H-pyrrol-3-yl)- 4-aminopyrrolo[2,1- f][1,2,4]triazin-5- yl)piperidin-3-yl)-1,1,3,3- tetramethylguanidine [Example 724] | 0.015 |

Further molecules by falling IC50, results first:

| IC50 [µM] | Molecule |
| --- | --- |
| 0.728 | CC(C)(O)c1ncc(-c2cc(N3CCC[C@@H](NC(=O)c4ccc(Cl)s4)C3)c3c(N)ncnn23)cn1 [Example 533, (R)-N-(1-(4-amino-7-(2-(2-hydroxypropan-2-yl)pyrimidin-5-yl)pyrrolo[2,1-f][1,2,4]triazin-5-yl)piperidin-3-yl)-5-chlorothiophene-2-carboxamide] |
| 0.21 | N#Cc1ccc(-c2cc(N3CCC[C@@H](NC(=O)c4sc(C(F)F)cc4C4CCNCC4)C3)c3c(N)ncnn23)cn1 [Example 395, (R)-N-(1-(4-amino-7-(6-cyanopyridin-3-yl)pyrrolo[2,1-f][1,2,4]triazin-5-yl)piperidin-3-yl)-5-(difluoromethyl)-3-(piperidin-4-yl)thiophene-2-carboxamide] |
| 0.103 | Cc1cc(-c2cc(N3CCC[C@@H](NC(=O)c4sc(Cl)cc4OCCN(C)C)C3)c3c(N)ncnn23)cn(CC(C)C)c1=O [Example 694, (R)—N-(1-(4-amino-7-(1-isobutyl-5-methyl-6-oxo-1,6-dihydropyridin-3-yl)pyrrolo[2,1-f][1,2,4]triazin-5-yl)piperidin-3-yl)-5-chloro-3-(2-(dimethylamino)ethoxy)thiophene-2-carboxamide] |
| 0.035 | CC(=O)N1CC=C(c2cc(N3CCC[C@@H](NC(=O)c4sc5ccc(C#N)cc5c4OC4CCNCC4)C3)c3c(N)ncnn23)C1 [Example 677, (R)—N-(1-(7-(1-acetyl-2,5-dihydro-1H-pyrrol-3-yl)-4-aminopyrrolo[2,1-f][1,2,4]triazin-5-yl)piperidin-3-yl)-5-cyano-3-(piperidin-4-yloxy)benzo[b]thiophene-2-carboxamide] |
| 0.025 | N#Cc1ccc(-c2cc(N3CCC[C@@H](NC(=O)c4sc(Cl)cc4OC4CN(CC(F)F)C4)C3)c3c(N)ncnn23)cn1 [Example 383, (R)—N-(1-(4-amino-7-(6-cyanopyridin-3-yl)pyrrolo[2,1-f][1,2,4]triazin-5-yl)piperidin-3-yl)-5-chloro-3-((1-(2,2-difluoroethyl)azetidin-3-yl)oxy)thiophene-2-carboxamide] |
| 0.022 | CC(C)(C)OC(=O)N1CC=C(c2ccc(C(=O)N[C@@H]3CCCN(c4cc(-c5ccnc(C(F)F)c5)n5ncnc(N)c45)C3)s2)CC1 [Example 545, tert-butyl (R)-4-(5-((1-(4-amino-7-(2-(difluoromethyl)pyridin-4-yl)pyrrolo[2,1-f][1,2,4]triazin-5-yl)piperidin-3-yl)carbamoyl)thiophen-2-yl)-3,6-dihydropyridine-1(2H)-carboxylate] |
| 0.019 | Nc1ncnn2c(-c3ccnc(F)c3)cc(N3CCC[C@@H](NC(=O)c4ccc(Cl)s4)C3)c12 [Example 130, N-[(3R)-1-[4-amino-7-(2-fluoropyridin-4-yl)pyrrolo[2,1-f][1,2,4]triazin-5-yl]piperidin-3-yl]-5-chlorothiophene-2-carboxamide] |
| 0.013 | CN1CCN(c2cccc(C(=O)N[C@@H]3CCCN(c4cc(-c5ccc(=O)n(C)c5)n5ncnc(N)c45)C3)n2)CC1 [Example 797, (R)-N-(1-(4-amino-7-(1-methyl-6-oxo-1,6-dihydropyridin-3-yl)pyrrolo[2,1-f][1,2,4]triazin-5-yl)piperidin-3-yl)-6-(4-methylpiperazin-1-yl)picolinamide] |
| 0.011 | Nc1ncnn2c(C3=CCN(C(=O)C4CCS(=O)(=O)C4)C3)cc(N3CCC[C@@H](NC(=O)c4ccc(Cl)s4)C3)c12 (stereo partly drawn) [Example 905, N-((3R)-1-(4-amino-7-(1-(1,1-dioxidotetrahydrothiophene-3-carbonyl)-2,5-dihydro-1H-pyrrol-3-yl)pyrrolo[2,1-f][1,2,4]triazin-5-yl)piperidin-3-y1)-5-chlorothiophene-2-carboxamide] |
| 0.007 | COC(=O)N1CC=C(c2cc(N3CCC[C@@H](NC(=O)c4sc5ccccc5c4OC4CCN(C(C)C)CC4)C3)c3c(N)ncnn23)C1 [Example 659, methyl (R)-3-(4-amino-5-(3-(3-((1-isopropylpiperidin-4-yl)oxy)benzo[b]thiophene-2-carboxamido)piperidin-1-yl)pyrrolo[2,1-f][1,2,4]triazin-7-yl)-2,5-dihydro-1H-pyrrole-1-carboxylate] |
| 0.005 | CC(=O)N1CC=C(c2cc(N3CCC[C@@H](NC(=O)c4sc(Cl)cc4OC4CC5(CNC5)C4)C3)c3c(N)ncnn23)C1 [Example 580] |
